Test results reported in patent US7306804B2 (priority 1998, dated 2007).
Where two headings read alike, the source gives them in different places.

How the values were obtained:
PBMCs = conditions: three monkeys immunized with peptide cocktail; cited from earlier work
[1] = system: HIV envelope protein gp160; conditions: two F1 hybrid mouse strains (B6C3 F1 and A.SW×Balb/c F1); cited from earlier work
[2] = system: anti-peptide antibodies in serum; format: binding, chimpanzee; parameters: key: +, Positive (Titer > 1:100); −, Negative (Titer < 1:100)
[3] = system: PBMCs from control and HIV-1 infected chimpanzees; format: cell-based, chimpanzee
[4] = system: PBMCs from normal and HIV-positive individuals; format: cell-based, human; conditions: for number of HIV+ individuals with positive proliferative responses: 17 HIV+ individuals tested
[5] = system: anti-peptide antibodies in serum; format: binding, human; parameters: key to Anti-peptide antibody response: +, Positive (titer above control); −, Negative (titer below control)

Sequence: LWDQSLKPCVKLT [Peptide 111]
- proliferative response of PBMCs (PBMCs): good response
- T-cell proliferation responses [1]: relatively good T-cell proliferation responses

Sequence: STRTPEDSNSLGT [c-mos peptide, reference compound]
- Anti-peptide antibody response [2]: −
- Anti-peptide antibody response ([2]; chimpanzee 40, control normal): −
- Anti-peptide antibody response ([2]; chimpanzee 73, control normal): −
- T-cell proliferative response ([3]; chimpanzee 40, control normal): − (−, Negative (SI < 2.0))
- T-cell proliferative response ([3]; chimpanzee 62, HIV-infected): − (−, Negative (SI < 2.0))
- T-cell proliferative response ([3]; chimpanzee 69, HIV-infected): − (−, Negative (SI < 2.0))
- T-cell proliferative response ([3]; chimpanzee 73, control normal): − (−, Negative (SI < 2.0))
- T-cell proliferative response ([3]; chimpanzee 80, HIV-infected): − (−, Negative (SI < 2.0))
- T-cell proliferative response ([3]; chimpanzee 99, HIV-infected): − (−, Negative (SI < 2.0))
- T-cell proliferative response ([3]; chimpanzee 100, HIV-infected): − (−, Negative (SI < 2.0))
- T-cell proliferative response ([3]; chimpanzee 139, HIV-infected): − (−, Negative (SI < 2.0))
- SI, background level of proliferation ([3]; chimpanzee 175): 2.7
- T-cell proliferative response ([3]; chimpanzee 175, HIV-infected): + (+, Positive (Stimulation Index [SI] > 2.0))
- T-cell proliferative response ([3]; chimpanzee 247, HIV-infected): − (−, Negative (SI < 2.0))
- T-cell proliferative response ([3]; chimpanzee 310, HIV-infected): − (−, Negative (SI < 2.0))
- number of HIV+ individuals with positive proliferative responses [4]: None
- number of HIV+ individuals with positive proliferative responses ([4]; listed as control peptide): none
- T-cell proliferative response ([4]; HIV-positive patient MSf): − (−, Negative (SI < 2.0))
- T-cell proliferative response ([4]; HIV-positive patient MSm): − (−, Negative (SI < 2.0))
- T-cell proliferative response ([4]; HIV-positive patient eight): − (−, Negative (SI < 2.0))
- T-cell proliferative response ([4]; HIV-positive patient eleven): − (−, Negative (SI < 2.0))
- T-cell proliferative response ([4]; HIV-positive patient fifteen): − (−, Negative (SI < 2.0))
- T-cell proliferative response ([4]; HIV-positive patient five): − (−, Negative (SI < 2.0))
- T-cell proliferative response ([4]; HIV-positive patient four): − (−, Negative (SI < 2.0))
- T-cell proliferative response ([4]; HIV-positive patient fourteen): − (−, Negative (SI < 2.0))
- T-cell proliferative response ([4]; HIV-positive patient nine): − (−, Negative (SI < 2.0))
- T-cell proliferative response ([4]; HIV-positive patient one): − (−, Negative (SI < 2.0))
- T-cell proliferative response ([4]; HIV-positive patient seven): − (−, Negative (SI < 2.0))
- T-cell proliferative response ([4]; HIV-positive patient six): − (−, Negative (SI < 2.0))
- T-cell proliferative response ([4]; HIV-positive patient ten): − (−, Negative (SI < 2.0))
- T-cell proliferative response ([4]; HIV-positive patient thirteen): − (−, Negative (SI < 2.0))
- T-cell proliferative response ([4]; HIV-positive patient three): − (−, Negative (SI < 2.0))
- T-cell proliferative response ([4]; HIV-positive patient twelve): − (−, Negative (SI < 2.0))
- T-cell proliferative response ([4]; HIV-positive patient two): − (−, Negative (SI < 2.0))
- T-cell proliferative response ([4]; Normal-1 (HIV-seronegative)): − (−, Negative (SI < 2.0))
- T-cell proliferative response ([4]; Normal-2 (HIV-seronegative)): − (−, Negative (SI < 2.0))
- Anti-peptide antibody response ([5]; HIV-positive patient MSf): −
- Anti-peptide antibody response ([5]; HIV-positive patient MSm): −
- Anti-peptide antibody response ([5]; HIV-positive patient eight): −
- Anti-peptide antibody response ([5]; HIV-positive patient eleven): −
- Anti-peptide antibody response ([5]; HIV-positive patient fifteen): −
- Anti-peptide antibody response ([5]; HIV-positive patient five): −
- Anti-peptide antibody response ([5]; HIV-positive patient four): −
- Anti-peptide antibody response ([5]; HIV-positive patient fourteen): −
- Anti-peptide antibody response ([5]; HIV-positive patient nine): −
- Anti-peptide antibody response ([5]; HIV-positive patient one): −
- Anti-peptide antibody response ([5]; HIV-positive patient seven): −
- Anti-peptide antibody response ([5]; HIV-positive patient six): −
- Anti-peptide antibody response ([5]; HIV-positive patient ten): −
- Anti-peptide antibody response ([5]; HIV-positive patient thirteen): −
- Anti-peptide antibody response ([5]; HIV-positive patient three): −
- Anti-peptide antibody response ([5]; HIV-positive patient twelve): −
- Anti-peptide antibody response ([5]; HIV-positive patient two): −
- Anti-peptide antibody response ([5]; Normal-1 (HIV-seronegative)): −
- Anti-peptide antibody response ([5]; Normal-2 (HIV-seronegative)): −

Sequence: YLRDQQLLGIWG [Peptide 120]
- Anti-peptide antibody response [2]: −
- T-cell proliferative response ([3]; chimpanzee 40, control normal): − (−, Negative (SI < 2.0))
- T-cell proliferative response ([3]; chimpanzee 62, HIV-infected): + (+, Positive (Stimulation Index [SI] > 2.0))
- T-cell proliferative response ([3]; chimpanzee 69, HIV-infected): + (+, Positive (Stimulation Index [SI] > 2.0))
- T-cell proliferative response ([3]; chimpanzee 73, control normal): − (−, Negative (SI < 2.0))
- T-cell proliferative response ([3]; chimpanzee 80, HIV-infected): + (+, Positive (Stimulation Index [SI] > 2.0))
- T-cell proliferative response ([3]; chimpanzee 99, HIV-infected): − (−, Negative (SI < 2.0))
- T-cell proliferative response ([3]; chimpanzee 100, HIV-infected): + (+, Positive (Stimulation Index [SI] > 2.0))
- T-cell proliferative response ([3]; chimpanzee 139, HIV-infected): − (−, Negative (SI < 2.0))
- T-cell proliferative response ([3]; chimpanzee 175, HIV-infected): − (−, Negative (SI < 2.0))
- T-cell proliferative response ([3]; chimpanzee 247, HIV-infected): − (−, Negative (SI < 2.0))
- T-cell proliferative response ([3]; chimpanzee 310, HIV-infected): − (−, Negative (SI < 2.0))
- number of HIV+ individuals with positive proliferative responses [4]: five
- T-cell proliferative response ([4]; HIV-positive patient MSf): − (−, Negative (SI < 2.0))
- T-cell proliferative response ([4]; HIV-positive patient MSm): − (−, Negative (SI < 2.0))
- T-cell proliferative response ([4]; HIV-positive patient eight): − (−, Negative (SI < 2.0))
- T-cell proliferative response ([4]; HIV-positive patient eleven): + (+, Positive (Stimulation Index [SI] > 2.0))
- T-cell proliferative response ([4]; HIV-positive patient fifteen): + (+, Positive (Stimulation Index [SI] > 2.0))
- T-cell proliferative response ([4]; HIV-positive patient five): − (−, Negative (SI < 2.0))
- T-cell proliferative response ([4]; HIV-positive patient four): − (−, Negative (SI < 2.0))
- T-cell proliferative response ([4]; HIV-positive patient fourteen): − (−, Negative (SI < 2.0))
- T-cell proliferative response ([4]; HIV-positive patient nine): + (+, Positive (Stimulation Index [SI] > 2.0))
- T-cell proliferative response ([4]; HIV-positive patient one): − (−, Negative (SI < 2.0))
- T-cell proliferative response ([4]; HIV-positive patient seven): + (+, Positive (Stimulation Index [SI] > 2.0))
- T-cell proliferative response ([4]; HIV-positive patient six): + (+, Positive (Stimulation Index [SI] > 2.0))
- T-cell proliferative response ([4]; HIV-positive patient ten): − (−, Negative (SI < 2.0))
- T-cell proliferative response ([4]; HIV-positive patient thirteen): − (−, Negative (SI < 2.0))
- T-cell proliferative response ([4]; HIV-positive patient three): − (−, Negative (SI < 2.0))
- T-cell proliferative response ([4]; HIV-positive patient twelve): − (−, Negative (SI < 2.0))
- T-cell proliferative response ([4]; HIV-positive patient two): − (−, Negative (SI < 2.0))
- T-cell proliferative response ([4]; Normal-1 (HIV-seronegative)): − (−, Negative (SI < 2.0))
- T-cell proliferative response ([4]; Normal-2 (HIV-seronegative)): − (−, Negative (SI < 2.0))
- Anti-peptide antibody response [5]: − and +
- number of HIV+ individuals with positive antibody titers (<1:1280) [5]: two
